“Also recorded” adds a separate entry of the source.
Columns and labels:
[1] = test system: pulmonary fibrosis-induced mice; assay: Bleomycin-induced pulmonary fibrosis animal model; assay type: in vivo, Balb/c mice; conditions: bleomycin mice lung, vs BLM-treated group
Source text: To evaluate the therapeutic efficacy of the compound according to the present invention against pulmonary fibrosis, an animal model of pulmonary fibrosis induced by bleomycin intratracheal administration was established.
For this purpose, 8-week-old male Balb/c mice were subjected to general anesthesia using an inhalation anesthetic (2-3% isoflurane in oxygen), followed by disinfection of the neck region, skin incision, and exposure of the trachea.
Bleomycin (Sigma-Aldrich, USA) was directly administered into the trachea at a concentration of 5 mg/kg in a solution of 100 μL.
Two days prior to Bleomycin administration, the compound of the present invention or the comparative drug was administered intraperitoneally at the specified concentration and dose, and the administration was continued once daily for a total of 14 days.
The experimental groups included Normal, Bleomycin alone (BLM), and BLM plus the compound of the present invention (BLM+GO88, 0.2 mg/kg).
Ten days later, the mice were euthanized humanely using carbon dioxide gas, the trachea was incised, and PBS was injected into the trachea to remove blood from the lungs.
The lung tissue washed with PBS was excised, fixed in 4% paraformaldehyde solution for 24 hours, and then paraffin blocks and tissue sections were prepared. The prepared sections were subjected to pathological analysis using H&E, Masson's trichrome, and Sirius red staining.
Additionally, immunohistochemical (IHC) staining was performed for α-SMA (α-smooth muscle actin), an indicator of lung fibroblast activation.

[2] = test system: PDK1 phosphorylation in SU-DHL-8 cells; assay: PDK1 phosphorylation inhibition by flow cytometry (pPDK1-PE) in SU-DHL-8 cells; assay type: cell-based, human; conditions: SU-DHL-8, 24 hours, vs control group
Protocol: After stabilizing the cells, the compound of the present invention was added, and the cells were cultured for 24 hours.
After drug treatment, the cells were harvested, and the Fc receptor blocking process was performed. The cells were then fixed and permeabilized using the Intracellular Staining Kit (Cat. No. BD554715) from BD Biosciences. Subsequently, the intracellular pPDK1 was stained using the pPDK1-PE fluorescently labeled antibody (BD Biosciences).
Referring to the figure, the vertical axis represents the phosphorylation level of PDK1 (phospho-PDK1 expression level), and the horizontal axis denotes the concentration-dependent treatment conditions of each compound.

[3] = test system: MRL/lpr mice with hair loss in the facial region; assay: Hair loss treatment and hair follicle Ki-67 IHC in MRL/lpr mice; assay type: in vivo; conditions: 41-week-old female MRL/lpr; GO15F (30 mg/kg), GO48 (1 mg/kg), GO88 (0.5 mg/kg) intraperitoneal once daily
Protocol: Additionally, in 41-week-old female MRL/Ipr mice, the compounds GO15F (30 mg/kg), GO48 (1 mg/kg), and GO88 (0.5 mg/kg) were administered intraperitoneally once daily.
To confirm the proliferative activity of hair follicle cells in the skin tissue of these mice, the mice were sacrificed 14 days after administration of the compounds of the present invention, and Ki-67 immunohistochemistry (IHC) was performed.
For this purpose, the excised skin tissue was fixed in formalin, embedded in paraffin blocks, and stained with a Ki-67-specific antibody on tissue sections prepared as slides.

psoriasis-induced mice = assay: In vivo psoriasis model (Aldara cream, Imiquimod); parameters: species or system BALB/c mice
Protocol: To verify the therapeutic effect of the compound according to the present invention on psoriasis, a psoriasis animal model was established as follows, and the compound according to the present invention was administered to evaluate the alleviation of skin lesions and changes in immune cell patterns.
For the establishment of the psoriasis animal model, BALB/c mice (7 weeks old, female, 20 g) were purchased from HanabioTech Co., Ltd. and acclimatized to the rearing environment for one week.
Subsequently, the hair on the mouse back was shaved using a hair removal device for the first time, and then completely shaved using a depilatory cream (Nicrin Cream (80% thioglycolic acid, Il Dong Pharmaceutical)) for the second time. The mice were then kept for 24 hours to confirm the absence of skin damage.
To verify the psoriasis prevention and therapeutic effects of the compounds according to the present invention, the following experimental groups were established:
[Normal control group (Normal, Not Treatment), psoriasis-induced control group (Psoriasis, Not Treatment), psoriasis-induced vehicle control group (Psoriasis, Vehicle), experimental group (GO85, GO86, GO88, GO89, PBK-2024-010, PBK-2024-026, PBK-2025-002, PBK-2025-004, PBK-2025-016, PBK-2025-017, PBK-2025-023)]. […]
Body weights of mice in each group were measured on days 1, 4, and 8 after the start of injection and psoriasis induction. […]
To evaluate the therapeutic effect in a psoriasis-induced mouse model, the PASI (Psoriasis Area and Severity Index) score was measured.
The PASI score is based on three criteria: erythema, scaling, and skin thickness, each scored from 0 (none) to 4 (severe). […]
Observations were conducted daily at the same time, and the same observer visually assessed each criterion and recorded the scores, with the results presented in FIG. 13. […]
All samples were measured in duplicate, and the absorbance was measured at 450 nm using a microplate reader.

Molecule	collagen deposition (Masson's trichrome and Sirius red staining) [1]	expression of α-SMA (IHC) [1]	phospho-PDK1 expression level [2]	hair growth on the facial region [3]	phospho-PDK1 expression level ([2]; listed as GO88)	efficacy in improving dermatological symptoms (psoriasis-induced mice)	phospho-PDK1 expression level ([2]; listed as GO86)
Nc1ncccc1C(=O)NCCCCCCCCCCCCF [Compound 57, 2-Amino-N-(12-fluoro-dodecyl)-nicotinamide]	significantly reduced	significantly suppressed	inhibitory effect on PDK1 phosphorylation	hair growth was confirmed	–	–	–
Nc1ncccc1C(=O)NCCCCCCCCCCCCN1CCNCC1 [Compound 14, 2-Amino-N-(12-(piperazin-1-yl)dodecyl)nicotinamide]	significantly reduced	significantly suppressed	–	hair growth was confirmed	stronger PDK1 inhibition; also recorded: high inhibitory effects even at low concentrations	excellent efficacy in improving dermatological symptoms	–
12-[4-(2,2-dimethylmorpholin-4-yl)]dodecyl-N-(6-aminopurine-2-yl) carboxamide [Compound 11]	–	–	–	–	–	excellent efficacy in improving dermatological symptoms	stronger PDK1 inhibition; also recorded: high inhibitory effects even at low concentrations
